Measurements taken from patent US12404232B2, “Compounds and compositions for intracellular delivery of therapeutic agents” (ModernaTX, Inc., priority 2015, dated 2025).

Key:
mice [1] = experiment: Luc expression (bioluminescence, total flux) after intravenous administration to mice; type: in vivo; conditions: for AUC (p/s*h): Luc total flux (Table 3D)
Procedure: (§1) In order to monitor how effectively various nanoparticle compositions deliver therapeutic and/or prophylactics to targeted cells, different nanoparticle compositions including a particular therapeutic and/or prophylactic (for example, a modified or naturally occurring RNA such as an mRNA) are prepared and administered to rodent populations. Mice are intravenously, intramuscularly, intraarterially, or intratumorally administered a single dose including a nanoparticle composition with a formulation such as those provided in Example 3. In some instances, mice may be made to inhale doses. Dose sizes may range from 0.001 mg/kg to 10 mg/kg, where 10 mg/kg describes a dose including 10 mg of a therapeutic and/or prophylactic in a nanoparticle composition for each 1 kg of body mass of the mouse. A control composition including PBS may also be employed.
Upon administration of nanoparticle compositions to mice, dose delivery profiles, dose responses, and toxicity of particular formulations and doses thereof can be measured by enzyme-linked immunosorbent assays (ELISA), bioluminescent imaging, or other methods. For nanoparticle compositions including mRNA, time courses of protein expression can also be evaluated. Samples collected from the rodents for evaluation may include blood, sera, and tissue (for example, muscle tissue from the site of an intramuscular injection and internal tissue); sample collection may involve sacrifice of the animals.
The efficacy of the nanoparticle compositions presented in Table 1A was evaluated with a bioluminescence study. Formulations were administered intravenously to mice (n=6) at a dosage of 0.5 mg/kg (mpk) and bioluminescence measured at 3, 6, and 24 hour time points. The standard MC3 formulation and, in some instances, a control (e.g., a PBS control) were evaluated for comparison. […] In general, flux decreased as time progressed to less than 10% of the initial flux.
(§2) The total flux (measured by area under the curve, AUC) induced by administration of a formulation including a given lipid relative to that induced by administration of a formulation including MC3 was also measured for several lipids.
The tolerability and efficacy of nanoparticle compositions to non-human primates was also investigated using sample formulations including Compounds 18, 25, 26, and 48 and MC3 to determine if these compounds are differentiated in terms of protein expression. The formulations were prepared according to the standard MC3 formulation described above and included an hEPO mRNA. Table 30 includes details of the compositions tested, while Table 31 summarizes the relative expression of Luc and hEPO mRNA in mice and rats. Expression was measured 6 hours after administration.

[2] = Particle size and polydispersity index of nanoparticle compositions (Zetasizer Nano ZS); type: physicochemical; conditions: for PDI: nanoparticle composition 50:10:38.5:1.5 mol % (Table 1A); for Size (nm): nanoparticle composition lipid:DSPC:cholesterol:PEG-DMG 50:10:38.5:1.5 mol %, mRNA encoding Luc or hEPO (Table 1A)
Source text: Nanoparticle compositions may be characterized by a variety of methods. For example, microscopy (e.g., transmission electron microscopy or scanning electron microscopy) may be used to examine the morphology and size distribution of a nanoparticle composition. Dynamic light scattering or potentiometry (e.g., potentiometric titrations) may be used to measure zeta potentials. Dynamic light scattering may also be utilized to determine particle sizes. Instruments such as the Zetasizer Nano ZS (Malvern Instruments Ltd, Malvern, Worcestershire, UK) may also be used to measure multiple characteristics of a nanoparticle composition, such as particle size, polydispersity index, and zeta potential.
A Zetasizer Nano ZS (Malvern Instruments Ltd, Malvern, Worcestershire, UK) can be used to determine the particle size, the polydispersity index (PDI) and the zeta potential of the nanoparticle compositions in 1×PBS in determining particle size and 15 mM PBS in determining zeta potential.
Initial studies were performed to compare the delivery efficiency of nanoparticle compositions including various compounds according to Formula (I), (IA), (II), (IIa), (IIb), (IIc), (IId) or (IIe). The cationic lipid MC3 is a current standard in the art. Accordingly, the standard MC3 formulation including about 50 mol % MC3, about 10 mol % DSPC, about 38.5 mol % cholesterol, and about 1.5 mol % PEG-DMG was used as a basis for this study. Nanoparticle compositions including DSPC as a phospholipid, cholesterol as a structural lipid, PEG-DMG as a PEG lipid, an RNA, and a compound according to Formula (I), (IA), (II), (IIa), (IIb), (IIc), (IId) or (IIe) selected from Compounds 1-159, 168-170, and 173-175 were prepared according to or via methods similar to those described in Examples 1 and 2. The ratios of the lipids were 50:10:38.5:1.5 mol % for the lipid according to Formula (I), (IA), (II), (IIa), (IIb), (IIc), (IId) or (IIe):DSPC:cholesterol:PEG-DMG. The RNA used was an mRNA encoding G5 luciferase (Luc) or G5 hEPO. Tables 1A-1B summarize the content and characteristics of the formulations. […]

mice [3] = experiment: Cytokine induction (IL-6, IP-10) in mice after intravenous administration; type: in vivo; set-up: IL-6 / IP-10: unit not given here; conditions: 0.5 mpk, 6 hours
Source text: The introduction of foreign material into a mammalian body induces an innate immune response that promotes cytokine production. Such immune responses to, for example, nanoparticle compositions including therapeutic and/or prophylactics, are undesirable. The induction of certain cytokines is thus measured to evaluate the […] of nanoparticle compositions. The concentrations of various cytokines in mice upon intravenous administration of nanoparticle compositions presented in Table 1A at a dosage of 0.5 mpk was measured at 6 hours. The standard MC3 formulation and a PBS control were also tested. As is evident in Table 7, IL-6 induction was highest for compositions including Compounds 1, 3, 9, 19, and 26, while IP-10 induction was highest for compositions including Compounds 3, 4, 7, 20, and 26. IL-6 induction was lowest for compositions including Compounds 4, 11, 12, and 28. IP-10 induction was lowest for compositions including Compounds 10, 11, 12, 13, 15, 17, and 18.
The expression of hEPO and cytokine induction in mice intravenously administered a nanoparticle composition at a dose of 0.5 mpk were measured at 3, 6, and 24 hours. […] The expression of hEPO in mice intramuscularly administered a nanoparticle composition from Table 1B at a dose of 0.01 mpk were measured at 3, 6, and 24 hours. […] (see also FIG. 9.)

mice [4] = experiment: Luc expression (total flux) after intramuscular administration; type: in vivo; conditions: 6 hours after intramuscular administration, Luc mRNA and H10 mRNA
Procedure: The numbers 1-7 in this figure correspond to MC3, Compounds 168-170, and 173-175 respectively.
as §1, §2
Sample formulations including both modified luciferase (Luc) mRNA and H10 mRNA were prepared and administered intramuscularly and the resulting expression and immunogenicity were evaluated simultaneously. Formulations including compounds according to Formula (I), (IA), (II), (IIa), (IIb), (IIc), (IId) or (IIe) were prepared and administered at doses of 0.001 and 0.01 mpk (e.g., doses of 0.0005 mpk of a formulation including Luc mRNA and a formulation including H10 mRNA or doses of 0.005 mpk of a formulation including Luc mRNA and a formulation including H10 mRNA).
Sample formulations including modified luciferase (Luc) mRNA prepared and administered intramuscularly and the resulting expression and immunogenicity were evaluated simultaneously. Formulations including compounds according to Formula (I), (IA), (II), (IIa), (IIb), (IIc), (IId) or (IIe) were prepared and administered at dose of […] 0.01 mpk.
The fluxes measured upon intravenous and intramuscular administration are compared in Table 6. Fluxes are presented as fold increase over that measured for MC3 formulations.

CCCCCCCCC(CCCCCCCC)OC(=O)CCCCCCCN(CCO)CCCCCCCC(=O)OC(C)(C)C [Compound 155, tert-Butyl 8-((8-(heptadecan-9-yloxy)-8-oxooctyl)(2-hydroxyethyl)amino)octanoate]
AUC (p/s*h) (mice [1]): 1.266E+011 p/s*h

CCCCCCCCC(CC)OC(=O)CCCN(CCO)CCCCCCCC(=O)OC(CCCCCCCC)CCCCCCCC (stereo not drawn) [Compound 72, Heptadecan-9-yl 8-((2-hydroxyethyl)(4-oxo-4-(undecan-3-yloxy)butyl)amino)octanoate]
PDI [2]: 0.11
Size (nm) [2]: 65.4 nm

CCCCCCCCC(CCCCCCCC)OC(=O)CCCCCCCN(CCO)CCCCCC(=O)OC(CCCCCCCC)C1CC1 (stereo not drawn) [Compound 128, Heptadecan-9-yl 8-((6-((1-cyclopropylnonyl)oxy)-6-oxohexyl)(2-hydroxyethyl)amino)octanoate]
PDI [2]: 0.14
Size (nm) [2]: 69.4 nm

CCCCCCCCOP(=O)(OCCCCCCCC)OCCCCCCCN(CCO)CCCCCCCC(=O)OC(C)CCCCCCCC (stereo not drawn) [Compound 132, Decan-2-yl 8-((7-((bis(octyloxy)phosphoryl)oxy)heptyl)(2-hydroxyethyl)amino)octanoate]
6 h Lipid/MC3 G.M. Luc Expression (mice [1]; i.v. administration, 6 h, geometric mean): 0.112
AUC (h*p/s) (mice [1]; i.v. administration, total Luc flux (Table 3C)): 1.75E+10 h*p/s

CCCCCCCCC(CCCCCCCC)OC(=O)CCCCCCCN(CCO)CCCCCCCC(=O)OCC(CCCCCCC)OC (stereo not drawn) [Compound 148, Heptadecan-9-yl 8-((2-hydroxyethyl)(8-((2-methoxynonyl)oxy)-8-oxooctyl)amino)octanoate]
AUC (p/s*h) (mice [1]): 4.965E+011 p/s*h

CCCCCCCCCOC(=O)CCCCCCCN(CCCCCCCC(=O)OC(CCCCCCCC)CCCCCCCC)CCCNC(=S)NC [Compound 113, Heptadecan-9-yl 8-((3-(3-methylthioureido)propyl)(8-(nonyloxy)-8-oxooctyl)amino)octanoate]
PDI [2]: 0.15
Size (nm) [2]: 69.2 nm

CCCC/C=C\CCC(CC/C=C\CCCC)OC(=O)CCCCCCCN(CCO)CCCCCC(=O)OCCCCCCCCCCC [Compound 61, (5Z,12Z)-heptadeca-5,12-dien-9-yl 8-((2-hydroxyethyl)(6-oxo-6-(undecyloxy)hexyl)amino)octanoate]
PDI [2]: 0.11
Size (nm) [2]: 89.1 nm

CCCCCCCCCC(=O)OCCCCCCCN(CCO)CCCCCCCOC(=O)C(CCCCCCCC)CCCCCCCC [Compound 151, 7-((7-(Decanoyloxy)heptyl)(2-hydroxyethyl)amino)heptyl 2-octyldecanoate]
AUC (p/s*h) (mice [1]): 7.010E+011 p/s*h

CCCCCCCCCOC(=O)CCCCCCCN(CCCCCCCC(=O)OC(CCCCCCCC)CCCCCCCC)CCCNC(=O)N(C)C [Compound 110, Heptadecan-9-yl 8-((3-(3,3-dimethylureido)propyl)(8-(nonyloxy)-8-oxooctyl)amino)octanoate]
PDI [2]: 0.13
Size (nm) [2]: 118 nm

CCCCCCCCCOC(=O)CCCCCCCN(CCCCCCCC(=O)OC(CCCCCCCC)CCCCCCCC)CCCNC(=O)NC [Compound 112, Heptadecan-9-yl 8-((3-(3-methylureido)propyl)(8-(nonyloxy)-8-oxooctyl)amino)octanoate]
PDI [2]: 0.12
Size (nm) [2]: 85.7 nm

CCCCCCCC/C=C\COC(=O)CCCCCN(CCO)CCCCCC(=O)OC/C=C\CCCCCCCC [Compound 140, Di((Z)-undec-2-en-1-yl) 6,6′-((2-hydroxyethyl)azanediyl)dihexanoate]
IL-6 (mice [3]): 282.82
IP-10 (mice [3]): 187.83
Total flux (p/s) 0.001 mpk Dose (mice [4]): 2.03E+05 p/s
Total flux (p/s) 0.01 mpk Dose (mice [4]): 6.09E+05 p/s

CCCCCCCCCOC(=O)CCCCCCCN(CCCCO)CCCCCCCC(=O)OC(CCCCCCCC)CCCCCCCC [Compound 20, Heptadecan-9-yl 8-((4-hydroxybutyl)(8-(nonyloxy)-8-oxooctyl)amino) octanoate]
IL-6 (mice [3]): 126.83
Size (nm) [2]: 111.5 nm

CCCCCCCCC(CC)OC(=O)CCCCCN(CCO)CCCCCCCC(=O)OC(CCCCCCCC)CCCCCCCC (stereo not drawn) [Compound 75, Heptadecan-9-yl 8-((2-hydroxyethyl)(6-oxo-6-(undecan-3-yloxy)hexyl)amino)octanoate]
PDI [2]: 0.10
Size (nm) [2]: 64.2 nm

CCCCCCCCCOC(=O)CCCCCCCN(CCO)CCCCCCCCCC(=O)OC(CCCCCCCC)CCCCCCCC [Compound 23, Heptadecan-9-yl 10-((2-hydroxyethyl)(8-(nonyloxy)-8-oxooctyl)amino) decanoate]
IL-6 (mice [3]): 94.00
IP-10 (mice [3]): 1015.95
Total flux (p/s) 0.001 mpk Dose (mice [4]): 8.27E+06 p/s
Total flux (p/s) 0.01 mpk Dose (mice [4]): 2.20E+06 p/s

CCCCCCCCCOC(=O)CCCCCCCN(CCCO)CCCCCCCC(=O)OC(CCCCCCCC)CCCCCCCC [Compound 19, Heptadecan-9-yl 8-((3-hydroxypropyl)(8-(nonyloxy)-8-oxooctyl)amino) octanoate]
IP-10 (mice [3]): 1468.94
Total flux (p/s) 0.001 mpk Dose (mice [4]): 3.28E+06 p/s
Total flux (p/s) 0.01 mpk Dose (mice [4]): 2.96E+07 p/s

CCCCCCCCCCCCCCN(CCO)CCCCCCCC(=O)OC(CCCCCCCC)CCCCCCCC [Compound 2, Heptadecan-9-yl 8-((2-hydroxyethyl)(tetradecyl)amino)octanoate]
IL-6 (mice [3]): 70.95
IP-10 (mice [3]): 468.86
Total flux (p/s) 0.001 mpk Dose (mice [4]): 3.55E+06 p/s
Total flux (p/s) 0.01 mpk Dose (mice [4]): 6.16E+07 p/s
